Assay results as given in patent US12048730B2, “Pharmaceutical composition for preventing or treating cancer, containing oligopeptide as active ingredient” (L-BASE CO., LTD., priority 2018, dated 2024).
“Also recorded” adds a separate entry of the source.

Tests used:
Format in all cases: cell-based
[1] = tested on: blood cancer cell line (Daudi); assay: MTS assay, cancer cell proliferation inhibition, blood cancer cell line; conditions: 500 μM oligopeptide, 72 hours, OD 490 nm, vs untreated control (FIG. 3)
Protocol: (§1) To measure the cancer cell proliferation inhibitory effect of the oligopeptides synthesized in Example 1, an MTS (3-(4,5-dimethylthiazol-2-y)-5-(3-carboxymethoxyphenyl)-2-(4-sulfophenyl)-2H-tetrazolium, inner salt) assay for cancer cells was performed. Specifically, each of a lung cancer cell line (H1975), a breast cancer cell line (MDA-MB-231) and a blood cancer cell line (Daudi), which were cultured in 96-well microplates, was treated with 500 μM of the oligopeptides synthesized in Example 1, and incubated in a 37° C. incubator for 72 hours. Each cell culture was treated with an MTS reagent and incubated in a 37° C. incubator for 30 minutes or more, and absorbance (OD) was measured at 490 nm.

[2] = tested on: breast cancer cell line (MDA-MB-231); assay: MTS assay, cancer cell proliferation inhibition, breast cancer cell line; conditions: MDA-MB-231, 500 μM oligopeptide, 72 hours, OD 490 nm, vs untreated control (FIG. 2)
Protocol: as §1

[3] = tested on: lung cancer cell line (H1975); assay: MTS assay, cancer cell proliferation inhibition, lung cancer cell line; conditions: H1975, 500 μM oligopeptide, 72 hours, OD 490 nm, vs untreated control (FIG. 1)
Protocol: as §1

Sequence | cancer cell proliferation inhibitory activity [1] | cancer cell proliferation inhibitory effect [2] | cancer cell proliferation inhibitory activity [3]
AECSKYSYKG (pep #5) | better cancer cell proliferation inhibitory activity than an untreated control; also recorded: excellent cancer cell proliferation inhibitory activity | better cancer cell proliferation inhibitory effect than an untreated control; also recorded: excellent cancer cell proliferation inhibitory effects | –
ATWPDTVRQL (pep #1) | better cancer cell proliferation inhibitory activity than an untreated control | – | –
CSKYSYKGLK (pep #4) | better cancer cell proliferation inhibitory activity than an untreated control | better cancer cell proliferation inhibitory effect than an untreated control | –
GMLVLTPTRE (pep #8) | better cancer cell proliferation inhibitory activity than an untreated control; also recorded: excellent cancer cell proliferation inhibitory activity | better cancer cell proliferation inhibitory effect than an untreated control | excellent cancer cell proliferation inhibitory effects
QTVMTSATWP (pep #6) | better cancer cell proliferation inhibitory activity than an untreated control | – | excellent cancer cell proliferation inhibitory effects
SICIYGGRNR (pep #7) | better cancer cell proliferation inhibitory activity than an untreated control | better cancer cell proliferation inhibitory effect than an untreated control; also recorded: excellent cancer cell proliferation inhibitory effects | excellent cancer cell proliferation inhibitory effects
SREQRNGPGM (pep #9) | – | – | excellent cancer cell proliferation inhibitory effects
TSATWPDTVR (pep #2) | better cancer cell proliferation inhibitory activity than an untreated control | better cancer cell proliferation inhibitory effect than an untreated control | –
WPDTVRQLAL (pep #3) | better cancer cell proliferation inhibitory activity than an untreated control | better cancer cell proliferation inhibitory effect than an untreated control; also recorded: excellent cancer cell proliferation inhibitory effects | –
